Data published in paper PMC11203436, “Hell’s Gate Globin-I from Methylacidiphilum infernorum Displays a Unique Temperature-Independent pH Sensing Mechanism Utililized a Lipid-Induced Conformational Change” (International Journal of Molecular Sciences, 2024).
Blank lines part the entries; values can stand above or below the molecule they belong to.

Experiments:
[1] = molecular target: T1, Hell's Gate globin-I (HGb-I) (Candidatus Methylacidiphilum infernorum, UniProt B3DUZ7); test: stopped-flow CO binding kinetics; optical spectrum of ferrous-CO form
T1 construct: gene hmp
T1 sequence (B3DUZ7 1-133): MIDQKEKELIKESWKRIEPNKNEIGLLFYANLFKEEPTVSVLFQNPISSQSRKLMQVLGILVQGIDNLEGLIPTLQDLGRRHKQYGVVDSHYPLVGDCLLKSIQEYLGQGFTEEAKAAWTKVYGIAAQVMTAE

[2] = molecular target: T1, Hell's Gate globin-I (HGb-I); test: optical (absorbance) titration of ferric protein at pH […] °C; supported by EPR and stopped flow; type: binding
[3] = molecular target: T1, Hell's Gate globin-I (HGb-I); test: optical (absorbance) titration of ferric protein at pH […] °C; type: binding

Structure (SMILES): [C-]#[O+] [carbon monoxide]
- stopped-flow CO binding kinetics; optical spectrum of ferrous-CO form [1]: In the absence of oleate, the CO binding to the hexacoordinate form is slow and reaches a plateau

- Kd [2]: 730 nM
Structure (SMILES): CCCCCCCC/C=C\CCCCCCCC(=O)O [oleate]

- Kd [3]: 9.88 µM
Structure (SMILES): CCCCCCCCCCCCCCCC(=O)O [palmitate]
